Laboratory results reported in patent US8530680B2, “System and method for controlling growth of microorganisms with brominated furanones” (Syracuse University, priority 2008, dated 2013).

Key:
C. albicans = C. albicans specific growth rate in a shake flask (data not shown); type: cell-based, Candida albicans; details: 3 μg/mL, after 3 hours of treatment
[1] = test system: six fungal strains (Gloeophyllum trabeum, Chaetomium globosum, Trametes versicolor); assay: Fungal growth on MEA plates with furanone, statements for all six strains; type: cell-based; details: 1 to 60 μg/mL
Procedure: This Example examines the effect of brominated furanones on the growth of fungi associated with damage to building material. Six fungal strains were the subject of these experiments; Gloeophyllum trabeum (strains GT598 and GT599), Chaetomium globosum (wildtype strain and CG572), and Trametes versicolor (strains TV7B2-59 and TV57MAD277). The species were developed on 2% Malt-Extract Agar (MEA) plates and stored inverted at 4° C. The stocks were refreshed by streaking new plates every two months.
The brominated and non-brominated furanones were added to MAE agar plates at different concentrations. The brominated furanones were dissolved in either ethanol (“EtOH”) or methanol (“MeOH”) as stock solutions, as shown in Table 5. The non-brominated furanones were purchased from Sigma (St. Louis, Mo.). The furanone stocks were stored at 4° C.
MAE agar plates containing the same amounts of ethanol/methanol were also prepared as negative controls to eliminate any solvent effects. The plates were prepared using either 90 mm or 60 mm petri dishes and were stored inverted at 4° C. until use.
Different concentrations of furanones were studied to compare their antifungal activities. The plates were inoculated with the six fungal strains using a platinum loop and were incubated upside down at 30° C. for 7 days to monitor the growth. The initial screening was performed using a single 60 μg/mL furanone concentration.

[2] = test system: orf19.2175 (CPD1) expression in C. albicans; assay: RNA dot blotting of C. albicans genes after BF1 treatment; type: cell-based, Candida albicans; details: 3 μg/mL BF1
Procedure: To corroborate the microarray results, four genes were checked with RNA dot blotting for their expression levels under the same conditions tested in microarray analysis: orf19.5604 (MDR1), orf19.2175 (CPD1), orf19.2896 (SOU1) and orf19.5565. The total RNA of a control sample without furanone was used to synthesize complementary DNA (cDNA) using OneStep RT-PCR Kit (QIAGEN Inc.) by following the manufacture's protocol. The annealing temperature was optimized based on the primers and was performed at 50° C. for 1 minute in each cycle. The length of the template cDNA was 457 bp, 364 bp, 455 bp and 423 bp for orf19.5604 (MDR1), orf19.2175 (CPD1), orf19.2896 (SOU1) and orf19.5565, respectively.
The DNA probes labeled with Digoxigenin (DIG)-dUTP were then generated using the same primer sets and PCR DIG Probe Synthesis Kit (Roche® Applied Science, Mannheim, Germany) by following the manufacture's protocol except that the annealing temperature was 48° C. for orf19.2175 and orf19.5565, and 51° C. for orf19.2896 and orf19.5604. Total RNA was isolated from cultures treated under the same conditions as in DNA microarray experiments. […] The light signal was recorded using Biomax X-ray films from Kodak (Rochester, N.Y.). […]

SMILES: CCCCC1=C(Br)/C(=C/Br)OC1=O [BF1, 4-bromo-5Z-(bromomethylene)-3-butylfuran-2-one]
- reduction of specific growth rate (C. albicans): approximately 50%
- growth inhibition of the six fungal strains, comparison [1]: effective at preventing growth in low concentrations
- induction of gene CPD1 in RNA dot blotting [2]: 10 fold
